Data taken from patent US20240269139A1, “COMPOUNDS FOR TARGETED PROTEIN DEGRADATION OF KINASES” (DANA-FARBER CANCER INSTITUTE, INC., priority 2020, published 2024).
Where two headings read alike, the source gives them in different places.

Legend:
Assay type in all cases: cell-based
[1] = biological target: protein kinases (human kinome) (Homo sapiens, UniProt Q7KZI7)
[2] = biological target: protein kinases (human kinome) (Homo sapiens, UniProt Q9Y2K2); conditions: for logFC of SIK3 (Q9Y2K2): Experiment wp195; for logFC: SIK3 (Q9Y2K2), experiment wp195
protein kinases (human kinome) (Homo sapiens, UniProt Q9Y2K2), sequence (Q9Y2K2 whole entry): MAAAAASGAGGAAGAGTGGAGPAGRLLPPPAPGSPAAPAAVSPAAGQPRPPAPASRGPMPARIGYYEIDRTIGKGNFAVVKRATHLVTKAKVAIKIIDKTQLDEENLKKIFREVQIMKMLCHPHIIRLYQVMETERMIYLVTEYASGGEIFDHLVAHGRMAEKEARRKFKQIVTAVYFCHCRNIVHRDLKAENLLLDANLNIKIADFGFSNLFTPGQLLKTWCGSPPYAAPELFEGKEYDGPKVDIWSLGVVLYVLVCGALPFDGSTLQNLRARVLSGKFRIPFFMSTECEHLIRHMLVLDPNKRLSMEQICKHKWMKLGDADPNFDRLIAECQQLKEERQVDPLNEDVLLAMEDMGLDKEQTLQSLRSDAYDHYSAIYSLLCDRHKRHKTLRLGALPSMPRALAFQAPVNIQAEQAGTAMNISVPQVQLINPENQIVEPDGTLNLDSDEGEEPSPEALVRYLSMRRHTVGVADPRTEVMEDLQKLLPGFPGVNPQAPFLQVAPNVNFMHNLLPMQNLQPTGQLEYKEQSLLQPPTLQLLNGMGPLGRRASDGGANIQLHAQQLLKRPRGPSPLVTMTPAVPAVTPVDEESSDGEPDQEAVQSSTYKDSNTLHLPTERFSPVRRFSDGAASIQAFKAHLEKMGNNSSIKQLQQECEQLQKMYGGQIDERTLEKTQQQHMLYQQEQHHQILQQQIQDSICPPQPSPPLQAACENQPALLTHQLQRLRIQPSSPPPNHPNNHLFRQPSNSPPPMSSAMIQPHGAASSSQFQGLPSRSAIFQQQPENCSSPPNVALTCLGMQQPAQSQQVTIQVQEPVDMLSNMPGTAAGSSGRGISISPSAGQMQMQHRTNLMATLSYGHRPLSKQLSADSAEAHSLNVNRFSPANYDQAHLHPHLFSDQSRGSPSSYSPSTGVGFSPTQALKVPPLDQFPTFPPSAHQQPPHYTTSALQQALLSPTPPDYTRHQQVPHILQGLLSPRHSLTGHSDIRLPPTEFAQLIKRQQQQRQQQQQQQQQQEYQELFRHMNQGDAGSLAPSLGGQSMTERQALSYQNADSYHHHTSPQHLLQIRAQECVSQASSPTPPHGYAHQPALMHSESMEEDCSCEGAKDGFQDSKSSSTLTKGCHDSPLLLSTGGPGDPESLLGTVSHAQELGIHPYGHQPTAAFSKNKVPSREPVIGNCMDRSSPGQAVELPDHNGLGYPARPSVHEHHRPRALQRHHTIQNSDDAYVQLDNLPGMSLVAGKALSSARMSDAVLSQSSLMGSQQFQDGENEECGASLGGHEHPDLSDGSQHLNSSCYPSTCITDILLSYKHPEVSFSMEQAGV

[3] = biological target: T1, protein kinases (human kinome) (Homo sapiens, UniProt Q9UBE8)
T1 sequence (Q9UBE8 1-527): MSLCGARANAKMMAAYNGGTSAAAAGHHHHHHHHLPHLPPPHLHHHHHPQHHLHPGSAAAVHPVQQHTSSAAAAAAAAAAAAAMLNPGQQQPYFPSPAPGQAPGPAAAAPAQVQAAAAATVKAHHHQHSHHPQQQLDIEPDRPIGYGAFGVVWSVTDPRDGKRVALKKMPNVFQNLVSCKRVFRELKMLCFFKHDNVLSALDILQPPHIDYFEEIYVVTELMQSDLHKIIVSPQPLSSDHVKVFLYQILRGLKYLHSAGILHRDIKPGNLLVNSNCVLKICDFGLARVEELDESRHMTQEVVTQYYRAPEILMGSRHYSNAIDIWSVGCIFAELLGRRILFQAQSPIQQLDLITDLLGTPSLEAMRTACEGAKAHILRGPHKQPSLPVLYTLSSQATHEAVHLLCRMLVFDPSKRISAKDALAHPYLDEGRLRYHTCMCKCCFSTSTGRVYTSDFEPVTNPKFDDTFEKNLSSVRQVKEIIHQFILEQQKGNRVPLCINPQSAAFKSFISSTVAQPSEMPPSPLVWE

[4] = biological target: protein kinases (human kinome) (Homo sapiens, UniProt P49137)
protein kinases (human kinome) (Homo sapiens, UniProt P49137), sequence (P49137 whole entry): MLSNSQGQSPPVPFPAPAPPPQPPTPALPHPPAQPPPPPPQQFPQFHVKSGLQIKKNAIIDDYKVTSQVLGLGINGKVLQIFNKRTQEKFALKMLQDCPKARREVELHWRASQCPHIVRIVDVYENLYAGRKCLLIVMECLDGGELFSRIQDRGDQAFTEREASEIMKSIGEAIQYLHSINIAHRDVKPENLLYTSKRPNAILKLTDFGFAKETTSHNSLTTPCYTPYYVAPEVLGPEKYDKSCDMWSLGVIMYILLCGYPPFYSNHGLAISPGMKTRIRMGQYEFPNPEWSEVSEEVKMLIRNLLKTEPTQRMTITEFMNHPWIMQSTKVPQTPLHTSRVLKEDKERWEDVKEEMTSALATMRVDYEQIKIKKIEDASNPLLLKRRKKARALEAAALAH

[5] = biological target: protein kinases (human kinome) (Homo sapiens, UniProt P00519)
protein kinases (human kinome) (Homo sapiens, UniProt P00519), sequence (P00519 whole entry): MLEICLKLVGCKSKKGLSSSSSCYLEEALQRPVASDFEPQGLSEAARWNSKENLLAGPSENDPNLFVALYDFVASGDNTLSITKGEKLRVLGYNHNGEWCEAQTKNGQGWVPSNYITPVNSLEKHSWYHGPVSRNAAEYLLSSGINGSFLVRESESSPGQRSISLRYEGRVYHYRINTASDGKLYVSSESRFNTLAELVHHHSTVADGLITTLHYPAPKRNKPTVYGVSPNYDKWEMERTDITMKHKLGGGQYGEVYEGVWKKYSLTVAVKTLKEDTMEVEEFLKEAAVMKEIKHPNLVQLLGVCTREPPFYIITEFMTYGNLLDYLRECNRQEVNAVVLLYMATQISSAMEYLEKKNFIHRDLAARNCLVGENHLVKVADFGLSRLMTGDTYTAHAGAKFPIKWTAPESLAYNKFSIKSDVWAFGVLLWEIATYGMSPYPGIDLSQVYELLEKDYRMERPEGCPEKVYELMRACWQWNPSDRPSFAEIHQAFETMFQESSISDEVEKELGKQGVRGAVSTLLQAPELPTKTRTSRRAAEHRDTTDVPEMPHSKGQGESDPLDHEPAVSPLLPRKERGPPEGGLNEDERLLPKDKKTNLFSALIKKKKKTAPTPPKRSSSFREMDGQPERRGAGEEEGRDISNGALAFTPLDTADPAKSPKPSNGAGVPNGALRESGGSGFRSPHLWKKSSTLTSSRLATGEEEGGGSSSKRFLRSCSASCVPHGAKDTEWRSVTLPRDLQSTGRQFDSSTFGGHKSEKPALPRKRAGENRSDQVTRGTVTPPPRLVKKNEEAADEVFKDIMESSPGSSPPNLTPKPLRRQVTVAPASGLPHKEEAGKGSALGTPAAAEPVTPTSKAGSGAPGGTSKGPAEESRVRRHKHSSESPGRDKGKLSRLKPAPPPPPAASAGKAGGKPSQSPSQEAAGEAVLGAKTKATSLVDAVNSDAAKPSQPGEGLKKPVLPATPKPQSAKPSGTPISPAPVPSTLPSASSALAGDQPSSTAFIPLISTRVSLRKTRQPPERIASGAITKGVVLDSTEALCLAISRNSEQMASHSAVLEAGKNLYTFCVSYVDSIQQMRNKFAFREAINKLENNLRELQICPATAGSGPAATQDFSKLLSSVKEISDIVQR

[6] = NLK (Q9UBE8), experiment wp137, direction down

protein kinases (human kinome) (Homo sapiens, UniProt Q7KZI7), sequence (Q7KZI7 whole entry): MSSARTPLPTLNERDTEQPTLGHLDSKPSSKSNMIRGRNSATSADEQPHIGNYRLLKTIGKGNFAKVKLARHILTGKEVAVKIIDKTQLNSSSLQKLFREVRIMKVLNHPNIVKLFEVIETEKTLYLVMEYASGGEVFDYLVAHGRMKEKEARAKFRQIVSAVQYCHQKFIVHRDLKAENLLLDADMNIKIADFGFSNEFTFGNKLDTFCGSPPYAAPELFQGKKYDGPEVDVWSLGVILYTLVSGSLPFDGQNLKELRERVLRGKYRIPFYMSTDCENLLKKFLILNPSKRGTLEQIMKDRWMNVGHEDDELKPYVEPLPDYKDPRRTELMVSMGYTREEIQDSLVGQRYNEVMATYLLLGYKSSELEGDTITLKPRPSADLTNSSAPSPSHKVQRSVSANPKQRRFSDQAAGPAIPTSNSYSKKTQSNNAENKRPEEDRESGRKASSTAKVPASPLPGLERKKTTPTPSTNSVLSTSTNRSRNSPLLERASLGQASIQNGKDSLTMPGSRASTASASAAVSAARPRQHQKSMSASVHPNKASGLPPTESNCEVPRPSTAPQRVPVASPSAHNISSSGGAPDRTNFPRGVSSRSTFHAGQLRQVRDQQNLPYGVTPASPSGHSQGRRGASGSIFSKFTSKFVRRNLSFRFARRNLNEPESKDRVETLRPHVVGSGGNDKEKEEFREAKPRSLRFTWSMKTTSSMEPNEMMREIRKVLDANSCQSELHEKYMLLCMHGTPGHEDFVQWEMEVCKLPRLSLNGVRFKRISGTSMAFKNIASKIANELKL

In the case of O=C(COc1cccc2c1C(=O)N(C1CCC(=O)NC1=O)C2=O)NCCCCCCCN1CCc2cc(Nc3ncc(C4CC4)c(NCCCNC(=O)C4CCC4)n3)ccc2C1 (stereo not shown) [BSJ.04.178], the logFC ([1]; MARK2 (Q7KZI7-1), experiment wp134, direction down) is reported as −0.9686 and the logFC ([1]; MARK2 Q7KZI7-1, experiment wp134) is reported as −0.9686.

Cc1ncsc1-c1ccc([C@H](C)NC(=O)[C@@H]2C[C@@H](O)CN2C(=O)[C@@H](NC(=O)CCCCCN2CCc3cc(Nc4ncc(C5CC5)c(NCCCNC(=O)C5CCC5)n4)ccc3C2)C(C)(C)C)cc1 [BSJ.05.026] was tested, and the logFC ([1]; MARK2 (Q7KZI7-1), experiment wp195, direction down) was −1.239, the logFC ([1]; MARK2 Q7KZI7-1, experiment wp195) was −1.239 and the “logFC of SIK3 (Q9Y2K2)” value [2] was −1.186. It also gave a logFC [2] of −1.186.

Molecule Cc1ccc(NC(=O)c2cccc(C(F)(F)F)c2)cc1N1Cc2cnc(Nc3ccc(N4CCN(Cc5cn(CCCCCOc6cccc7c6C(=O)N(C6CCC(=O)NC6=O)C7=O)nn5)CC4)nc3)nc2N(C)C1=O (stereo not shown) [DB0646, N-(3-(7-((6-(4-((1-(5-((2-(2,6-Dioxopiperidin-3-yl)-1,3-dioxoisoindolin-4-yl)oxy)pentyl)-1H-1,2,3-triazol-4-yl)methyl)piperazin-1-v)pyridin-3-yl)amino)-1-methyl-2-oxo-1,4-dihydropyrimido[4,5-d]pyrimidin-3(2H)-yl)-4-methylphenyl)-3-(trifluoromethyl)benzamide] has a logFC ([3]; NLK (Q9UBE8), experiment wp117, direction down) of −0.501, a logFC ([3]; NLK (Q9UBE8), experiment wp160, 8 hr, direction down) of −0.5569 and a logFC ([3]; NLK Q9UBE8, experiment wp117) of −0.501. The logFC ([3]; NLK Q9UBE8, experiment wp160, 8 hr) was −0.5569, the “logFC MAPKAPK2” value ([4]; Accession P49137, experiment wp045, direction down) was −0.4334 and the “logFC MAPKAPK2” value ([4]; Accession P49137, experiment wp105, direction down) was −0.4562. The “logFC MAPKAPK2” value ([4]; Accession P49137, experiment wp107, direction down) was −0.3734, the “logFC MAPKAPK2” value ([4]; Accession P49137, experiment wp114, direction down) was −0.4911 and the “logFC MAPKAPK2” value ([4]; Accession P49137, experiment wp117, direction down) was −0.4333. For the same molecule, the “logFC MAPKAPK2” value ([4]; Accession P49137, experiment wp152, direction down) was −0.4223, the “logFC MAPKAPK2” value ([4]; Accession P49137, experiment wp160, 4 hr, direction down) was −0.3444 and the “logFC MAPKAPK2” value ([4]; Accession P49137, experiment wp160, 8 hr, direction down) was −0.6227. For the same molecule, the “logFC MAPKAPK2” value ([4]; Accession P49137, experiment wp172, direction down) was −0.3294, the “logFC MAPKAPK2” value ([4]; MAPKAPK2 (P49137), experiment wp045) was −0.4334 and the “logFC MAPKAPK2” value ([4]; MAPKAPK2 (P49137), experiment wp105) was −0.4562. The “logFC MAPKAPK2” value ([4]; MAPKAPK2 (P49137), experiment wp107) was −0.3734, the “logFC MAPKAPK2” value ([4]; MAPKAPK2 (P49137), experiment wp114) was −0.4911 and the “logFC MAPKAPK2” value ([4]; MAPKAPK2 (P49137), experiment wp117) was −0.4333. For the same molecule, the “logFC MAPKAPK2” value ([4]; MAPKAPK2 (P49137), experiment wp152) was −0.4223, the “logFC MAPKAPK2” value ([4]; MAPKAPK2 (P49137), experiment wp160, 4 hr) was −0.3444 and the “logFC MAPKAPK2” value ([4]; MAPKAPK2 (P49137), experiment wp160, 8 hr) was −0.6227. For the same molecule, the “logFC MAPKAPK2” value ([4]; MAPKAPK2 (P49137), experiment wp172) was −0.3294.

For Cc1ccc(NC(=O)c2cccc(C(F)(F)F)c2)cc1N1Cc2cnc(Nc3ccc(N4CCN(CCCOc5cccc6c5C(=O)N(C5CCC(=O)NC5=O)C6=O)CC4)nc3)nc2N(C)C1=O (stereo not shown) [DB0662], the “logFC MAPKAPK2” value ([4]; Accession P49137, experiment wp168, direction down) was −0.331, the “logFC MAPKAPK2” value ([4]; MAPKAPK2 (P49137), experiment wp168) was −0.331 and the “logFC of ABL1 (P00519)” value ([5]; Experiment wp168) was −0.7617. For the same molecule, the “logFC ABL1 (P00519)” value ([5]; experiment wp168) was −0.7617.

CC(C)(C)c1nc(-c2cccc(NS(=O)(=O)c3c(F)cccc3F)c2F)c(-c2ccnc(NCCOCCNC(=O)CCOCCOCCNc3cccc4c3C(=O)N(C3CCC(=O)NC3=O)C4=O)n2)s1 (stereo not shown) [DD.03.106] was tested, and the logFC [3, 6] was −0.441.

Cc1cnc(Nc2ccc(N3CCN(CCCCCCC(=O)N[C@H](C(=O)N4C[C@H](O)C[C@H]4C(=O)N[C@@H](C)c4ccc(-c5scnc5C)cc4)C(C)(C)C)CC3)cc2)nc1Nc1cccc(S(=O)(=O)NC(C)(C)C)c1 [JWG.123] was tested, and the “logFC of SIK3 (Q9Y2K2)” value [2] was −1.322 and the logFC [2] was −1.322.

For Cn1c(=O)c(-c2c(Cl)cccc2Cl)cc2cnc(Nc3ccc(OCCNC(=O)CCCCCCNC(=O)COc4cccc5c4C(=O)N(C4CCC(=O)NC4=O)C5=O)cc3)nc21 (stereo not shown) [SB1.G.192.1], the logFC ([3]; NLK (Q9UBE8), experiment wp071, direction down) was −0.5578, the logFC ([3]; NLK (Q9UBE8), experiment wp081, direction down) was −0.4869 and the logFC ([3]; NLK (Q9UBE8), experiment wp131, direction down) was −0.5634. It also gave a logFC ([3]; NLK Q9UBE8, experiment wp071) of −0.5578, a logFC ([3]; NLK Q9UBE8, experiment wp081) of −0.4869 and a logFC ([3]; NLK Q9UBE8, experiment wp131) of −0.5634.

CC(C)S(=O)(=O)c1ccccc1Nc1nc(Nc2ccc(N3CCN(CCOCCNC(=O)CNc4cccc5c4C(=O)N(C4CCC(=O)NC4=O)C5=O)CC3)cc2)ncc1Cl (stereo not shown) [SK.3.91] showed a logFC ([1]; MARK2 (Q7KZI7-1), experiment wp107, direction down) of −0.5266, a logFC ([1]; MARK2 (Q7KZI7-1), experiment wp172, direction down) of −0.6351 and a logFC ([1]; MARK2 Q7KZI7-1, experiment wp107) of −0.5266. The logFC ([1]; MARK2 Q7KZI7-1, experiment wp172) was −0.6351, the “logFC ABL1 (P00519)” value ([5]; experiment wp160, 4 hr) was −0.3545 and the “logFC of ABL1 (P00519)” value ([5]; experiment wp160, 4 hr) was −0.3545.

With CC(C)S(=O)(=O)c1ccccc1Nc1nc(Nc2ccc(N3CCN(CCOCCOCCNC(=O)CNc4cccc5c4C(=O)N(C4CCC(=O)NC4=O)C5=O)CC3)cc2)ncc1Cl (stereo not shown) [TL12.186] the logFC [3, 6] was −0.5154 and the logFC ([3]; NLK Q9UBE8, experiment wp137) was −0.5154.
